Experimental data: patent publication US12377092B2, “Polycomb inhibitors and uses thereof” (FONDAZIONE ISTITUTO FIRC DI ONCOLOGIA MOLECOLARE (IFOM), priority 2017, dated 2025)
Entries after “also recorded” stand apart in the source; their conditions may differ.

How the values were obtained:
[1] = target: T1, Bmi1 (Mus musculus, UniProt P25916); test: Western blot analysis of Bmi1, wild type and CCM3 knock out immortalized lung endothelial cells; format: cell-based; settings: 24 hours of treatment, 1 uM PTC209 vs DMSO
T1 construct: western blot analysis of Bmi1 on lysates from confluent wild type (WT) and CCM3 knockout (CCM3-KO) cells treated with PTC209; endogenous in cells; host or cells: immortalized mouse lung endothelial cells, wild type and CCM3 knock out (VECPAC/CCM3 fl/fl, TAT-Cre)
T1 sequence (P25916 1-324): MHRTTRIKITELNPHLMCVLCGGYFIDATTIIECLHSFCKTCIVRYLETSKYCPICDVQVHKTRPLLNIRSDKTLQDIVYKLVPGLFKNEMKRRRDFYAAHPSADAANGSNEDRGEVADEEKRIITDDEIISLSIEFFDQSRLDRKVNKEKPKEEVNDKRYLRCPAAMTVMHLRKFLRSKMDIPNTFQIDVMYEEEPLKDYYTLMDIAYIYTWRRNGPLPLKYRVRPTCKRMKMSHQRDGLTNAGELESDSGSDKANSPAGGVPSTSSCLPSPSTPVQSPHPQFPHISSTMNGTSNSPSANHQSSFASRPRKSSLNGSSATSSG
Description: (§1) Confluent cells were lysed with boiling modified Laemi sample Buffer (2% SDS, 20% glycerol, and 125 mM Tris-HCl, pH 6.8). Lysates were incubated for 10 minutes at 100° C. to allow proteins denaturation. Protein concentration was estimated using the BCA Protein Assay Kit (Pierce). Equal amount of proteins was loaded on a gel, separated by SDS-PAGE and transferred to a Protran Nitrocellulose Membrane (Whatman) 0.2 um pores. The membranes were blocked for 1 hour at RT in Tris Buffered Saline (TBS: NaCl 150 mM, Tris-HCl 10 mM pH 7.4) plus 0.1% Tween-20 containing 5% BSA or milk. The membranes were incubated with primary antibodies diluted in TBST (TBS plus 0.1% Tween-20) containing 5% of either BSA or milk overnight at 4° C. Next, membranes were rinsed three times with TBST for 5 minutes each and incubated for 45 minutes at RT with HRP-linked secondary antibodies diluted in TBST containing 5% BSA/milk. Membranes were rinsed three times with TBST for 5 minutes each and specific bindings were detected by enhanced chemiluminescence (ECL) system (Amersham Bioscience) using ChemiDoc XRS gel imaging system (Bio-Rad).
CCM3 knock out cells were immortalized lung endothelial cells derived from VECPAC/CCM3^fl/fl mice, treated with TAT-Cre recombinase. […] As control the same cell line without TAT-Cre treatment were used. […]

[2] = system: EndMT markers (Klf4, Sca1 and Fsp1); test: Western blot analysis of EndMT markers, wild type and CCM3 knock out immortalized lung endothelial cells; format: cell-based, mouse; settings: 72 hours
Description: Cells were seeded 6.3×10^4 cells/cm^2. The day after, PTC209 and UNC1999 were added to the confluent cells. Drugs were left for one or three days depending on the aim of the experiment. Final concentrations used for the two drugs were: 1 uM PTC209 and 5 uM UNC1999.
as §1
Wild type and CCM3 knock out cells were treated with either PTC209 or DMSO starting from the day after seeding, when cells were confluent. For this experiment cells were lysed for western blot and real-time analysis after 72 hours of treatment to check a long-term effect of PTC209.
To perform these experiments, immortalized lung endothelial cells both wild type and CCM3 knock out were treated, with the same experimental strategy used for PTC209, with UNC1999 for 72 hours and subsequently lysed for western blot and real time analysis. UNC1999 was used in its specific optimal concentration, which was different to PTC209. As control DMSO was given to the cells in a volume equal to the volume of DMSO in which UNC1999 was previously dissolved to rich the optimal concentration.
Briefly, wild type and CCM3 knock out cells were treated with either PTC209, UNC1999 or a combination of the two. PTC209 and UNC1999 were administrated at the same concentration used for the single treatment and DMSO was given as control in a volume equal to the sum of volumes of DMSO in which UNC1999 and PTC209 were previously dissolved.

[3] = system: EndMT markers (Klf4, Sca1 and Fsp1); test: Immunofluorescence analysis of EndMT markers, CCM1 knock out cells; format: cell-based, mouse; settings: CCM1 knockout cells; PTC209 vs DMSO
Description: Treatment with PTC209 was performed with the same experimental conditions used for CCM3 model. After treatment cells were analysed by western blot (FIG. 9), real time (FIG. 10) and immunofluorescence (FIG. 11) analysis. […] This observation resembled what was previously observed for human patients as well as for CCM3 mouse model, namely that mutation in Ccm3 led to a more severe phenotype, with higher risk of cerebral haemorrhage and more severe malformations, compare to patients with mutation in Ccm1 and Ccm2 (Denier et al., 2006).

[4] = system: Axin2, Serpin1, Id1, Hes1 and Dll4; test: Real-time PCR of target genes of β-catenin, TGFβ and Delta-Notch pathways, wild type and CCM3 knock out cells; format: cell-based, mouse; settings: PTC209 72 hours
Description: RNA extraction was performed both with (A) RNeasy kits (Promega) or (B) RNAeasy Mini Kit (QIAGEN). The latter allows also the extraction of proteins from the same sample. The RNA (500 ng) was reverse transcribed with random hexamers (High Capacity cDNA Archive kits; Applied Biosystems) in a final volume of 30 uL. Reaction were made with a thermocycler (Eppendorf) 10 min at 25° C. followed by 2 hours at 37° C. cDNA (5 ng) was amplified in triplicate in a reaction volume of 15 uL using TaqMan Gene Expression Assays (Applied Biosystems) in a ABI/Prism 7900 HT using a pre PCR step of 10 min at 95° C., followed by 40 cycles of 15 seconds at 95° C. and 60 seconds at 60° C. For each sample, the expression level was determined with the comparative threshold cycle (Ct) method, and normalized to the housekeeping genes encoding 18S, glyceraldehyde-3-phosphate dehydrogenase (GAPDH) and hypoxanthine-guanine phosphoribosyltransferase (hprt1). Ct or threshold cycle, represents the PCR cycle at which an increase in reporter fluorescence above a base-line signal can first be detect.
To perform these experiments, wild type and CCM3 knock out cells were treated with PTC209 with the same experimental conditions described before, and subsequently lysed for gene expression analysis.
Axin2 was checked as evidence of β-catenin pathway activation (FIG. 25A), Serpin1 and Id1 for TGFβ signalling (FIG. 25B), while Hes1 and Dll4 for Notch pathway activation (FIG. 25C).

[5] = CCM3 knock out cells (pathological conditions)
[6] = CCM3 knock out cells (pathological)
[7] = wild type cells (physiological)

## COc1cc(Br)c(Nc2nc(-c3c(C)nc4ncccn34)cs2)c(Br)c1 [PTC209, N-(2,6-dibromo-4-methoxyphenyl)-4-(2-methylimidazo[1,2-a]pyrimidin-3-yl)thiazol-2-amine]
[1]; CCM3 knock out cells
  Bmi1 protein expression (western blot): downregulation of Bmi1
[1]; wild type cells
  Bmi1 protein expression (western blot): downregulation of Bmi1
[2]; CCM3 knock out cells
  Klf4 protein up-regulation induced by CCM3 deletion (western blot): completely rescued
[2]; CCM3 knock out cells, 1 uM PTC209
  levels of Klf4 and Sca1 protein in treated CCM3 knock out cells versus wild type cells: comparable with the levels expressed by wild type cells
[2]; CCM3 knock out cells, 1 uM PTC209, 5 uM UNC1999, vs DMSO
  EndMT markers (Klf4, Sca1, Fsp1) protein expression (western blot): strongly downregulated; also recorded: inhibition of the upregulation
[2]; wild type cells (physiological condition), CCM3 model
  Klf4 protein (western blot): not affected
[3]
  upregulation of Klf4, Sca1 and Fsp1 (relative fluorescence intensity): inhibited
[4]; [5]
  Hes1 transcript (Notch pathway): downregulated
  Serpin1 transcript (TGFβ signalling): upregulated
[4]; [6]
  Axin2 transcript (β-catenin pathway): downregulation
  Id1 transcript (TGFβ signalling): downregulation
[4]; [7]
  Axin2 transcript (β-catenin pathway): downregulation
  Id1 transcript (TGFβ signalling): downregulation
